DBAASP
In brackets after ≈: the same amount, converted by molar mass.

Columns and labels:
Experiment in all cases: ≥ marks a high value that may be exact or a test limit, other limits are often not marked, values filed in µg/mL are converted to µM
[1] = system: Pseudomonas aeruginosa ATCC 27853
[2] = system: Pseudomonas aeruginosa 73
[3] = system: Pseudomonas aeruginosa 50
[4] = system: Pseudomonas aeruginosa ATCC 9027
[5] = system: Klebsiella pneumoniae ATCC 700603
[6] = system: Staphylococcus epidermidis ATCC 12228
Escherichia coli 780 = system: Escherichia coli 780
[7] = system: Bacillus subtilis ATCC 23857
[8] = system: Acinetobacter baumannii ATCC 19606
[9] = system: Acinetobacter baumannii 9931
Escherichia coli 804 = system: Escherichia coli 804
[10] = system: Staphylococcus aureus 113
Staphylococcus aureus 75 = system: Staphylococcus aureus 75
[11] = system: Staphylococcus aureus ATCC 29213
[12] = system: Acinetobacter baumannii 97830
[13] = system: Staphylococcus aureus ATCC 25923
[14] = system: Shigella dysenteriae ATCC 51302
[15] = system: Escherichia coli ATCC 25922
[16] = system: Salmonella typhimurium ATCC 50013
[17] = system: Streptococcus pneumoniae ATCC 49619
[18] = system: Bacillus subtilis ATCC 9372
[19] = system: Klebsiella pneumoniae ATCC BAA-1705
Escherichia coli W3110 = system: Escherichia coli W3110
[20] = system: Pseudomonas aeruginosa H103
[21] = system: Pseudomonas aeruginosa 919
[22] = system: Pseudomonas aeruginosa 910
[23] = system: Pseudomonas aeruginosa PAO1
[24] = system: Staphylococcus epidermidis
Candida albicans = system: Candida albicans
Escherichia coli UB1005 = system: Escherichia coli UB1005
[25] = system: Salmonella enterica serovar Typhimurium
[26] = system: Pseudomonas aeruginosa 253
[27] = system: Enterococcus faecalis ATCC 29212

Compound: C[C@H](N)C(=O)N[C@@H](Cc1c[nH]c2ccccc12)C(=O)N[C@@H](CCCN=C(N)N)C(=O)N[C@@H](Cc1c[nH]c2ccccc12)C(=O)N[C@@H](Cc1c[nH]c2ccccc12)C(=O)N[C@@H](Cc1c[nH]c2ccccc12)C(=O)N[C@@H](CCCN=C(N)N)C(=O)N[C@@H](Cc1c[nH]c2ccccc12)C(=O)N[C@@H](C)C(N)=O [AWRWWWRWA]
- MIC [1]: 32 µM (≈ 44.9 µg/mL)
- MIC [2]: ≥ 32 µM
- MIC [3]: ≥ 32 µM
- MIC [4]: 32 µM (≈ 44.9 µg/mL)
- MIC [5]: 8 µM (≈ 11.2 µg/mL)
- MIC [6]: 8 µM (≈ 11.2 µg/mL)
- MIC (Escherichia coli 780): 16 µM (≈ 22.4 µg/mL)
- MIC [7]: 8 µM (≈ 11.2 µg/mL)
- MIC [8]: 32 µM (≈ 44.9 µg/mL)
- MIC [9]: ≥ 32 µM
- MIC (Escherichia coli 804): 8 µM (≈ 11.2 µg/mL)
- MIC [10]: 8 µM (≈ 11.2 µg/mL)
- MIC (Staphylococcus aureus 75): 4 µM (≈ 5.61 µg/mL)
- MIC [11]: 8 µM (≈ 11.2 µg/mL)
- MIC [12]: 8 µM (≈ 11.2 µg/mL)

Compound: NC(=O)[C@H](Cc1ccccc1)NC(=O)[C@H](CCCN=C(N)N)NC(=O)[C@H](CCCN=C(N)N)NC(=O)[C@H](Cc1c[nH]c2ccccc12)NC(=O)[C@H](Cc1c[nH]c2ccccc12)NC(=O)[C@H](Cc1c[nH]c2ccccc12)NC(=O)[C@H](CCCN=C(N)N)NC(=O)[C@H](CCCN=C(N)N)NC(=O)[C@@H](N)Cc1ccccc1 [FRRWWWRRF]
- MIC [1]: 4 µM (≈ 5.98 µg/mL)
- MIC [2]: 16 µM (≈ 23.9 µg/mL)
- MIC [3]: 4 µM (≈ 5.98 µg/mL)
- MIC [4]: 8 µM (≈ 12 µg/mL)
- MIC [5]: 16 µM (≈ 23.9 µg/mL)
- MIC [6]: 8 µM (≈ 12 µg/mL)
- MIC (Escherichia coli 780): 16 µM (≈ 23.9 µg/mL)
- MIC [7]: 2 µM (≈ 2.99 µg/mL)
- MIC [8]: 16 µM (≈ 23.9 µg/mL)
- MIC [9]: 16 µM (≈ 23.9 µg/mL)
- MIC (Escherichia coli 804): 16 µM (≈ 23.9 µg/mL)
- MIC [10]: 8 µM (≈ 12 µg/mL)
- MIC (Staphylococcus aureus 75): 4 µM (≈ 5.98 µg/mL)
- MIC [11]: 4 µM (≈ 5.98 µg/mL)
- MIC [12]: 8 µM (≈ 12 µg/mL)

Compound: CC(C)C[C@H](NC(=O)CN)C(=O)N[C@@H](CO)C(=O)N[C@@H](CCCN=C(N)N)C(=O)N[C@@H](CC(C)C)C(=O)N[C@@H](Cc1ccccc1)C(=O)N[C@H](C(=O)N[C@@H](C)C(=O)N[C@@H](CC(C)C)C(=O)N[C@@H](CCCCN)C(=O)O)[C@@H](C)O [GLSRLFTALK]
- MIC [13]: 14.5 µM (≈ 16 µg/mL)
- MIC [1]: 57.9 µM (≈ 64 µg/mL)
- MIC [14]: ≥ 232 µM
- MIC [15]: 29 µM (≈ 32 µg/mL)
- MIC [16]: 29 µM (≈ 32 µg/mL)
- MIC [17]: ≥ 57.9 µM
- MIC [18]: 14.5 µM (≈ 16 µg/mL)

Compound: CC[C@H](C)[C@H](N)C(=O)N[C@@H](CC(C)C)C(=O)N[C@H](C(=O)N[C@@H](C)C(=O)N[C@@H](CS)C(=O)N[C@@H](Cc1c[nH]c2ccccc12)C(=O)NCC(=O)N[C@@H](CC(C)C)C(=O)N[C@@H](CCCCN)C(=O)N[C@@H](CC(C)C)C(=O)N[C@@H](CC(C)C)C(=O)N[C@@H](CCCN=C(N)N)C(=O)N[C@@H](Cc1ccc(O)cc1)C(=O)N[C@@H](CCCN=C(N)N)C(=O)N[C@@H](CCCN=C(N)N)C(=O)N[C@H](C(=O)N[C@@H](Cc1ccc(O)cc1)C(=O)O)[C@@H](C)CC)[C@@H](C)CC [ILIACWGLKLLRYRRIY]
- MIC [19]: ≥ 128 µM
- MIC (Escherichia coli W3110): 4 µM (≈ 8.6 µg/mL)

Compound: CC[C@H](C)[C@H](N)C(=O)N[C@@H](CCCN=C(N)N)C(=O)N[C@@H](Cc1c[nH]c2ccccc12)C(=O)N[C@@H](Cc1c[nH]c2ccccc12)C(=O)N[C@@H](Cc1c[nH]c2ccccc12)C(=O)N[C@@H](CCCN=C(N)N)C(=O)N[C@H](C(N)=O)[C@@H](C)CC [IRWWWRI]
- MIC [1]: 16 µM (≈ 17.8 µg/mL)
- MIC [2]: ≥ 32 µM
- MIC [3]: ≥ 32 µM
- MIC [4]: 32 µM (≈ 35.7 µg/mL)
- MIC [5]: 32 µM (≈ 35.7 µg/mL)
- MIC [6]: 8 µM (≈ 8.91 µg/mL)
- MIC (Escherichia coli 780): 16 µM (≈ 17.8 µg/mL)
- MIC [7]: 8 µM (≈ 8.91 µg/mL)
- MIC [8]: 64 µM (≈ 71.3 µg/mL)
- MIC [9]: ≥ 32 µM
- MIC (Escherichia coli 804): 16 µM (≈ 17.8 µg/mL)
- MIC [10]: 8 µM (≈ 8.91 µg/mL)
- MIC (Staphylococcus aureus 75): 8 µM (≈ 8.91 µg/mL)
- MIC [11]: 4 µM (≈ 4.46 µg/mL)
- MIC [12]: ≥ 32 µM

Compound: CC[C@H](C)[C@H](N)C(=O)N[C@@H](Cc1c[nH]c2ccccc12)C(=O)N[C@@H](Cc1c[nH]c2ccccc12)C(=O)N[C@@H](C)C(=O)N[C@@H](CCCCN)C(=O)N[C@@H](Cc1c[nH]c2ccccc12)C(=O)NCC(=O)N[C@@H](CC(C)C)C(=O)N[C@@H](CC(=O)O)C(=O)N[C@@H](CC(C)C)C(=O)N[C@@H](CC(C)C)C(=O)N[C@@H](CCCN=C(N)N)C(=O)N[C@@H](Cc1ccc(O)cc1)C(=O)N[C@@H](CCCN=C(N)N)C(=O)N[C@@H](CCCN=C(N)N)C(=O)N[C@H](C(=O)N[C@@H](Cc1c[nH]c2ccccc12)C(=O)O)[C@@H](C)CC [IWWAKWGLDLLRYRRIW]
- MIC [19]: ≥ 128 µM
- MIC (Escherichia coli W3110): ≥ 64 µM

Compound: CC[C@H](C)[C@H](NC(=O)[C@H](CCCN=C(N)N)NC(=O)[C@H](C)NC(=O)CNC(=O)[C@@H](N)CCCN=C(N)N)C(=O)N[C@H](C(=O)N[C@H](C(=O)N[C@H](C(=O)N[C@@H](CCCN=C(N)N)C(=O)N[C@H](C(=O)N[C@@H](C)C(=O)N[C@@H](CCCN=C(N)N)C(N)=O)C(C)C)[C@@H](C)CC)C(C)C)C(C)C [RGARIVVIRVAR]
- MIC [13]: 22.7 µM (≈ 31 µg/mL)
- MIC [20]: 22.7 µM (≈ 31 µg/mL)
- MIC [21]: 16 µM (≈ 21.8 µg/mL)
- MIC [22]: ≥ 32 µM
- MIC [23]: 32 µM (≈ 43.7 µg/mL)
- MIC [24]: 11.7 µM (≈ 16 µg/mL)
- MIC (Candida albicans): 11.7 µM (≈ 16 µg/mL)
- MIC (Escherichia coli UB1005): 5.86 µM (≈ 7.99 µg/mL)
- MIC [25]: 22.7 µM (≈ 31 µg/mL)
- MIC [26]: ≥ 32 µM
- MIC [27]: 22.7 µM (≈ 31 µg/mL)

Compound: CC[C@H](C)[C@H](NC(=O)[C@H](CCCN=C(N)N)NC(=O)[C@H](CCCN=C(N)N)NC(=O)[C@H](CC(C)C)NC(=O)[C@@H](N)CCCN=C(N)N)C(=O)N[C@H](C(=O)N[C@H](C(=O)N[C@H](C(=O)N[C@@H](CCCN=C(N)N)C(=O)N[C@H](C(=O)N[C@@H](C)C(=O)N[C@@H](CCCN=C(N)N)C(=O)O)C(C)C)[C@@H](C)CC)C(C)C)C(C)C [RLRRIVVIRVAR]
- MIC [13]: 5.31 µM (≈ 8 µg/mL)
- MIC [20]: 5.31 µM (≈ 8 µg/mL)
- MIC [21]: 16 µM (≈ 24.1 µg/mL)
- MIC [22]: ≥ 32 µM
- MIC [23]: 16 µM (≈ 24.1 µg/mL)
- MIC [24]: 1.33 µM (≈ 2 µg/mL)
- MIC (Candida albicans): 10.6 µM (≈ 16 µg/mL)
- MIC (Escherichia coli UB1005): 2.65 µM (≈ 4 µg/mL)
- MIC [25]: 5.31 µM (≈ 8 µg/mL)
- MIC [26]: 16 µM (≈ 24.1 µg/mL)
- MIC [27]: 5.31 µM (≈ 8 µg/mL)

Compound: CC[C@H](C)[C@H](NC(=O)[C@H](CCCCN)NC(=O)[C@H](CCCCN)NC(=O)[C@H](Cc1c[nH]c2ccccc12)NC(=O)[C@H](CCCCN)NC(=O)[C@H](Cc1c[nH]c2ccccc12)NC(=O)[C@H](CC(C)C)NC(=O)[C@H](CCCCN)NC(=O)[C@H](CC(C)C)NC(=O)CNC(=O)[C@H](Cc1c[nH]c2ccccc12)NC(=O)[C@H](CCCCN)NC(=O)[C@H](C)NC(=O)[C@H](Cc1c[nH]c2ccccc12)NC(=O)[C@H](CCCN=C(N)N)NC(=O)[C@@H](N)Cc1c[nH]c2ccccc12)C(=O)N[C@@H](Cc1ccc(O)cc1)C(=O)O [WRWAKWGLKLWKWKKIY]
- MIC [19]: 16 µM (≈ 38 µg/mL)
- MIC (Escherichia coli W3110): 2 µM (≈ 4.75 µg/mL)
